# According to article PMC12488667, “Orodispersible films containing chestnut shell phenolics for buccal delivery: a preclinical approach for oral mucositis prevention” (Frontiers in Medical Technology, 2025):
# Marks after values point to notes of the source that are not given here.
# Experiments:
# TR146 cells = assay: In vitro permeation, buccal model; format: in vitro ADME, human
# Procedure: The in vitro permeability of the bioactive compounds present in OFs (n = 9) was determined using a co-culture model composed of TR146 ([31]). The extract and the CS-loaded OFs were added to the apical side of the model as a stock solution. […] The Transepithelial Electrical Resistance (TEER) of the model was evaluated before, during, and at the end of the permeability assay using an EVOM Epithelial Volthometer equipped with a chopstick electrode (World Precision Instruments, Sarasota, FL, USA).
# (§1) The identification and quantification of the phenolic compounds present in the extract and the OFs, as well as the compounds that permeated from the OFs through in vitro and ex vivo assays, were conducted using an LC-ESI-LTQ-Orbitrap-HRMS equipment with an Accela chromatograph (Thermo Scientific, Hemel Hempstead, UK), a photodiode array detector, a quaternary pump, and a temperature-controlled autosampler coupled to a high-resolution LTQ Orbitrap Velos mass spectrometer (Thermo Scientific, Hemel Hempstead, UK) with an ESI source in negative mode ([33], [34]). The system was controlled using the Xcalibur v3.0 software (ThermoFisher Scientific, Hemel Hempstead, UK). Elution was performed on an Acquity™ UPLC® BEH C18 Column (2.1 × 100 mm, i.d., 1.7 µm particle size, Waters Corporation, Wexford, Ireland) maintained at 30°C.
# (§2) Gradient elution was performed with water (A) and acetonitrile (B), both with 0.1% formic acid, with a flow rate and injection volume of 450 µl/min and 5 µl, respectively. The solvent gradient (v/v) of B [t (min), %B] was set as follows: (0, 0), (2, 0), (4, 30), (8, 100), (10, 100), (11, 0), and (14, 0). The samples were analyzed in the full scan mode at a resolving power of 30,000 and m/z 600. Data-dependent MS/MS events were acquired at a resolution of 15,000. Most intense ions were detected via the FTMS mode-triggered data-dependent acquisition mode. Ions that were not sufficiently intense for a data-dependent scan were explored in MSn mode. Precursors were fragmented by collision-induced dissociation using a C-trap with a normalized collision energy (35 V) and an activation time of 10 ms. […] Compounds whose theoretical [M–H]^− values exceeded the MS¹ acquisition range (m/z 100–600) were annotated based on characteristic MSⁿ fragment ions detected within the scan window.
# [1] = Ex vivo permeation, Franz cells; format: in vitro ADME, porcine
# Procedure: Porcine buccal mucosa was used to evaluate the buccal permeation of the phenolic compounds in the extract and the CS-loaded OFs (n = 9). The porcine buccal mucosa was purchased in a local butcher shop, not requiring ethical approval. A Franz cell assembly (9 mm clear jacketed Franz cell with a flat ground joint, 5 ml receptor volume, and permeation area of 0.785 cm^2; PermeGear, Inc., USA) was used. This experiment followed the methodology described by Rodrigues et al. ([32]). In the Franz apparatus, the porcine buccal mucosa was positioned with the cheek side facing the donor chamber, which contained 500 µl (1,000 μg/ml) of the CS extract or the CS-loaded OFs (two square films (2 × 2 cm) with […] of thickness were dissolved in 4 ml of artificial saliva; donor concentration was normalized to ensure equivalence between the extract solution and the film formulation). The receptor chamber was filled with 5 ml PBS, maintained at 37°C, and stirred continuously at 150 rpm. The volume was maintained through the experiments.
# as §1, §2
# Quantitative analysis was performed by using a validated chromatographic method ([38]).
SMILES,Quantification of permeated compounds (TR146 cells; CS extract),Quantification of permeated compounds (TR146 cells; CS-loaded OFs),"Permeation (%) (TR146 cells; from CS extract, 15 min)","Permeation (%) (TR146 cells; from CS extract, 30 min)","Permeation (%) (TR146 cells; from CS extract, 45 min)","Permeation (%) (TR146 cells; from CS extract, 60 min)","Permeation (%) (TR146 cells; from CS extract, 90 min)","Permeation (%) (TR146 cells; from CS extract, 120 min)","Permeation (%) (TR146 cells; from CS extract, 180 min)","Permeation (%) (TR146 cells; from CS extract, 240 min)","Permeation (%) (TR146 cells; from CS-loaded OFs, 15 min)","Permeation (%) (TR146 cells; from CS-loaded OFs, 45 min)","Permeation (%) (TR146 cells; from CS-loaded OFs, 60 min)","Permeation (%) (TR146 cells; from CS-loaded OFs, 90 min)","Permeation (%) (TR146 cells; from CS-loaded OFs, 120 min)","Permeation (%) (TR146 cells; from CS-loaded OFs, 180 min)","Permeation (%) (TR146 cells; from CS-loaded OFs, 240 min)",Quantification of permeated compounds ([1]; CS extract),Quantification of permeated compounds ([1]; CS-loaded OFs),"Permeation (%) ([1]; from CS extract, 15 min)",other results
O=C(O)C[C@H](C(=O)O)[C@@H](O)C(=O)O [Isocitric acid],222.23 ± 6.57^a mg/ml,306.36 ± 13.65^b mg/g film,0.04 ± 0.01^a %,0.12 ± 0.03^a %,0.15 ± 0.01^a %,0.15 ± 0.01^a %,0.24 ± 0.03^a %,"0.33 ± 0.02^a^,^b %","0.54 ± 0.04^a^,^b %",0.70 ± 0.01^b %,0.15 ± 0.001^a %,0.50 ± 0.06^a %,0.62 ± 0.02^a %,1.04 ± 0.01^b %,1.40 ± 0.04^b %,2.77 ± 0.01^b %,3.38 ± 0.06^b %,2.20 ± 0.05^a mg/ml,2.21 ± 0.16^a mg/g film,15.13 ± 0.29^a %,"Permeation (%) (TR146 cells; from CS-loaded OFs, 30 min): 0.29 ± 0.05^a %; Permeation (%) ([1]; from CS extract, 30 min): 13.91 ± 1.51^a %; Permeation (%) ([1]; from CS-loaded OFs, 15 min): 19.05 ± 1.12^a %; Permeation (%) ([1]; from CS-loaded OFs, 30 min): 19.02 ± 0.90^a %"
O=C(O)c1ccc(O)c(O)c1 [Protocatechuic acid],0.53 ± 0.03^a mg/ml,0.41 ± 0.02^a mg/g film,39.32 ± 0.96^b %,43.86 ± 1.62^b %,42.03 ± 0.79^b %,38.29 ± 0.86^b %,37.52 ± 0.97^b %,25.84 ± 1.03^a %,40.40 ± 0.82^c %,32.88 ± 0.87^b %,89.42 ± 3.08^b %,85.88 ± 2.01^b %,94.08 ± 3.56^b %,96.88 ± 1.43^b %,106.06 ± 0.78^b %,84.76 ± 2.51^b %,75.80 ± 0.91^a %,0.97 ± 0.03^b mg/ml,0.13 ± 0.01^a mg/g film,19.05 ± 1.63^a %,"Permeation (%) (TR146 cells; from CS-loaded OFs, 240 min, listed as protocatechuic acid): 75.80%; Permeation (%) ([1]; from CS extract, 30 min): 19.06 ± 0.61^a %"
O=C(O)CCC(=O)O [Succinic acid],1.60 ± 0.03^a mg/ml,0.82 ± 0.01^a mg/g film,20.51 ± 1.62^b %,14.86 ± 2.71^a %,16.09 ± 1.85^a %,14.96 ± 0.46^a %,19.54 ± 0.94^b %,20.71 ± 1.67^b %,21.62 ± 0.61^b %,23.76 ± 1.68^b %,44.20 ± 2.19^a %,56.70 ± 1.23^b %,57.45 ± 0.78^b %,79.12 ± 4.41^c %,88.23 ± 1.26^c %,103.25 ± 1.42^d %,100.86 ± 1.75^d %,1.26 ± 0.01^b mg/ml,0.38 ± 0.01^a mg/g film,60.67 ± 0.21^b %,"Permeation (%) (TR146 cells; from CS-loaded OFs, 30 min): 64.44 ± 1.03^c %; Permeation (%) (TR146 cells; from CS-loaded OFs, 240 min, listed as succinic acid): 100.86%; Permeation (%) ([1]; from CS extract, 30 min): 70.72 ± 3.61^b %; Permeation (%) ([1]; from CS-loaded OFs, 15 min): 14.00 ± 0.63^a %; Permeation (%) ([1]; from CS-loaded OFs, 30 min): 16.11 ± 0.72^a %"
